What was measured:
[1] = tested on: SKOV3T cells; assay: Survival, IP SKOV3T xenograft in BALB/c nu/nu mice; format: in vivo, human; conditions: 15 mg/kg/day IP in DMSO
Method: Cell lines were grown in the appropriate media as described in Appendix 1. Cells were harvested and washed in sterile PBS or medium without FBS, resuspended to a suitable concentration, and injected into the IP cavity of […] of the appropriate strain. Prior to implantation of 7TD1 cells, C57BL/6 mice were primed by IP injection of 0.5 mL Pristane. SKOV3T cells were implanted into athymic mice without Pristane priming. Mice were observed daily for the occurrence of ascites formation. Individual animals were sacrificed when they presented with a weight gain of 40%, or when the IP tumor burden began to cause undue stress and pain to the animal.
In one experiment, SKOV3T cells (2×10^6 cells) were implanted into the IP cavity of BALB/c, nu/nu mice.

[2] = tested on: T98G cells; assay: PDGF-stimulated DNA synthesis, T98G cells (3H-thymidine); format: cell-based, human; conditions: 50 ng/ml PDGF-BB
Method: T98G cells in log phase growth were transferred to 96-well dishes at 20,000 cells in 200 μL of serum-containing growth medium. After an overnight attachment period, the monolayers were washed twice with 200 μL MCDB 105 medium and the cells were cultured in 200 μL serum-free MCDB 105 medium for 24 hr. […] The plates were incubated at 37° C. at ambient CO2 for approximately 18 hr. ^3 H-thymidine (Amersham, 5 Ci/mmol) was added to each well to yield a final concentration of 5 μCi/mL and the plates were returned to 37° C. incubator. After 4 hr the medium was removed, the plates were put onto ice, and washed twice with 200 μL ice-cold PBS per well. Radioactivity incorporated into DNA was separated from unincorporated ^3 H-thymidine by precipitation with 100 μL ice-cold TCA for 10 min on ice. […] Six mL of cocktail (Ready Safe, Beckman) was added and radioactivity quantified in a Beckman liquid scintillation counter model LS6000SC. […]
The effect on basal ^3 H-thymidine incorporation was determined in the absence of PDGF. […] Radioactivity incorporated into DNA was separated from unincorporated ^3 H-thymidine by precipitation with […] ice-cold TCA for 10 minutes. […] Six ml of cocktail (Ready Safe, Beckman) was added and radioactivity quantified in a Beckman liquid scintillation counter model LS6000 SC.

[3] = tested on: spleen cells; assay: Normal immune function in mice bearing a primary tumor; format: in vivo, mouse; conditions: 20 mg/kg/day
Source text: At the indicated times, animals were sacrificed, and the spleens were aseptically removed and placed into sterile medium. Spleens were processed into single cell suspensions by grinding between sterile frosted glass microscope slides. After a single wash to remove tissue debris, the spleen cells were resuspended in a hypotonic ammonium chloride buffer to lyse erythrocytes. Lymphocytes were washed and resuspended to the appropriate concentrations in complete medium, consisting of RPMI plus 10% heat-inactivated FBS, 2 mM glutamine, 50 μM β-mercaptoethanol, and penicillin-streptomycin. The responses of the lymphocytes were examined in the following assays according to accepted procedures (Current Protocols in Immunology. Coligan, J. E., Kruisbeek, A. M., Margulies, D. H., Shevach, E. M., Strober, W. (eds.) John Wiley and Sons, Inc., 1992).
The T-cell mitogen, ConA, and the T-cell independent B-cell mitogen, LPS, were added to 96-well round-bottom wells at the indicated concentrations. Lymphocytes from normal, vehicle-dosed, and drug-dosed animals were added at a final concentration of 2.5×10^5 /well. Cultures were usually set up in triplicate or quadruplicate. The plates were incubated at 37° C. in a humidified atmosphere containing 5% CO2 for the indicated times. Supernatants (approximately 100 μL) were carefully removed from the wells and stored at -80° C. for lymphokine and immunoglobulin analyses. To measure proliferation of the lymphocytes, 1 μCi of ^3 H-thymidine was added to each well, and the plates were incubated for 6 hr. The cultures were harvested onto glass fiber filters, and the incorporated radioactivity was quantitated by liquid scintillation counting (Betaplate, Wallac).
Lymphocytes from normal, vehicle-dosed, and drug-dosed animals were plated at 2.5×10^5 /well in round-bottom 96-well plates. Stimulator cells were then added at the same cell concentration. The stimulator cells consisted of syngeneic or allogeneic lymphocytes which had been treated with 50 μg/mL of mitomycin C for 30 min prior to the assay. The plates were incubated for 3 to 4 days, at which time supernatants were harvested and the cultures were pulsed as described for the mitogen assays.
Supernatants from mitogen and MLR cultures were assayed for IL-2 and IL-6 content by the ability to support the growth of factor-dependent cell lines. HT-2 cells (10^4 /well, IL-2-dependent) and 7TD1 cells (2×10^3 /well, IL-6-dependent) were plated in 96-well flat-bottom plates, in 50 μL/well. Supernatants were added in 50 μL/well, and the plates were incubated overnight (HT-2) or four days (7TD1). Cellular proliferation was determined in the MTT colorimetric assay (Appendix 3.1).
Flat bottom 96-well EIA plates were coated with goat anti-mouse Ig antibodies (Southern Biotechnology) overnight at 4° C. The plates were blocked by the addition of PBS+1% BSA. After washing with PBS, supernatants from murine mitogen and MLR cultures were added and incubated at room temperature for 1 hr. The plates were washed with PBS, then HRP-labeled goat anti-mouse Ig antibodies were added and incubated at room temperature for 1 hr. The plates were washed and developed by the addition of substrate (ABTS).
BALB/c mice received SC implants of syngeneic WEHI-164.13 fibrosarcoma cells on day 0. […] On day 17, the animals were sacrificed and their spleens were removed. The spleen cells were assayed in vitro for responses to alloantigens and mitogens.

Compound: Cc1oncc1C(=O)Nc1ccc(C(F)(F)F)cc1 [Compound A10, 5-methylisoxazole-4 carboxylic acid-(4-trifluromethyl)-anilide]
- survival [1]: significantly increase the survival
- animals alive ([1]; after 32 days): 40%
- animals died ([1]; by 28 days): one of A10 treated animals died by 28 days
- PDGF-stimulated DNA synthesis [2]: decreased PDGF-stimulated DNA synthesis in both types of cells, however a greater effect was seen in human T98G glioblastoma cells
- IL-2 production ([3]; Allo): 0
- IL-6 production ([3]; Allo): 0
- Ig production ([3]; Allo): 0
- IL-2 production ([3]; ConA): 0
- IL-6 production ([3]; ConA): 0
- Ig production ([3]; ConA): 0
- IL-2 production ([3]; LPS): 0
- IL-6 production ([3]; LPS): 0
- Ig production ([3]; LPS): 0
- IL-2 production ([3]; Tumor stimulus): 0
- IL-6 production ([3]; Tumor stimulus): 0
- Ig production ([3]; Tumor stimulus): 0

Reference: patent US6331555A, “Treatment of platelet derived growth factor related disorders such as cancers” (priority 1999, dated 2001)
